The record followed here is US8637525B2, “Compounds for the reduction of beta-amyloid production” (Bristol-Myers Squibb Company, priority 2009, dated 2014).

Molecules are shown by their SMILES. pIC50: −log10 of the molar value.

In one assay the test system is Aβ1-42 production. Kind of assay: Cellular assay for inhibition of Aβ1-42 production (H4 APP751 SWE clone 8.20). The class given is cell-based. The note with it: 19 h, H4 APP751 SWE clone 8.20 cells, 19 h incubation; class symbols; read-out: Activity Rating (Aβ42 cellular IC50). The method, then:
Cellular Assays for Inhibition of Aβ1-40 and Aβ1-42 Production
H4 cells stably transfected with APP751 containing the Swedish mutation (H4 APP751 SWE clone 8.20, developed at BMS) were maintained in log phase through twice weekly passage at a 1:20 split. […] Following incubation for 19 h in 5% CO2 at 37° C., plates were briefly centrifuged (1000 rpm, 5 min). A 10 μl aliquot from each well was transferred to a second assay plate (Costar 3709) for Aβ40 measurements. Antibody cocktails were freshly prepared by dilution into 40 mM Tris-HCl (pH 7.4) with 0.2% BSA and added to assay plates. For Aβ42 measurements, antibodies specific for the Aβ42 neoepitope (565, developed at BMS; conjugated to the Wallac reagent (Perkin Elmer)) and the N-terminal sequence of Aβ peptide (26D6, developed at SIBIA; conjugated to APC (Perkin Elmer)) were mixed and 20 μl of the mixture was added to each well of the incubated cell plate yielding a final concentration of 0.8 ng/well 565 and 75 ng/well 26D6. For the Aβ40 measurements, antibodies specific for the Aβ40 neoepitope (TSD, developed at BMS; conjugated to the Wallac reagent (Perkin Elmer)) and 26D6 as described above were mixed and 20 μl of the mixture was added to the 10 μl aliquots which had been removed previously from the cell plate yielding a final concentration of 1.6 ng/well TSD and 17.5 ng/well 26D6. Assay plates containing antibodies were sealed with aluminum foil and incubated overnight at 4° C. Signal was determined using a Viewlux counter (Perkin Elmer) and IC50 values determined using curve fitting in CurveMaster (Excel Fit based).
With `CNc1nc(Nc2ccc(-n3cnc(Cl)c3)c(OC)c2)nc2c1C(=O)CC2c1ccccc1` (racemic) [Example 200, (±)-2-(4-(4-chloro-1H-imidazol-1-yl)-3-methoxyphenylamino)-4-(methylamino)-7-phenyl-6,7-dihydro-5H-cyclopenta[d]pyrimidin-5-one], the negative logarithm of the IC50 (pIC50) is 7.00 to 8.00.

In the case of `CNc1nc(Nc2ccc(-n3cnc(C)n3)c(OC)c2)nc2c1CCC2c1ccc(N(C)C)cc1` (stereo not drawn) [Example 273, 7-(4-(dimethylamino)phenyl)-N2-(3-methoxy-4-(3-methyl-1H-1,2,4-triazol-1-yl)phenyl)-N4-methyl-6,7-dihydro-5H-cyclopenta[d]pyrimidine-2,4-diamine], the pIC50 was 7.00 to 8.00.

Turning to `COc1cc(Nc2nc3c(c(N(C)C)n2)CCCC3c2ccc(F)cc2)ccc1-n1cnc(Cl)c1` (racemic) [Example 127, N^2-(4-(4-Chloro-1H-imidazol-1-yl)-3-methoxyphenyl)-8-(4-fluorophenyl)-N^4,N^4-dimethyl-5,6,7,8-tetrahydroquinazoline-2,4-diamine], the pIC50 was 7.00 to 8.00.

With `CCNc1nc(Nc2ccc(-n3ncnc3C)c(F)c2)nc2c1COCC2c1ccc(C(F)(F)F)cc1` (stereo not drawn) [Example 119B, N4-ethyl-N2-(3-fluoro-4-(5-methyl-1H-1,2,4-triazol-1-yl)phenyl)-8-(4-(trifluoromethyl)phenyl)-7,8-dihydro-5H-pyrano[4,3-d]pyrimidine-2,4-diamine], the pIC50 was 6.00 to 7.00.

`COc1cc(Nc2nc3c(c(N(C)C)n2)CCC3c2ccccc2)ccc1-n1cnc(Cl)c1` (stereo not drawn) [Example 4, N^2-(4-(4-Chloro-1H-imidazol-1-yl)-3-methoxyphenyl)-N^4,N^4-dimethyl-7-phenyl-6,7-dihydro-5H-cyclopenta[d]pyrimidine-2,4-diamine]: the pIC50 was 8.00 to 8.82.

For the compound `CCNc1nc(Nc2ccc(-n3cnc(Cl)c3)c(OC)c2)nc2c1CN(S(C)(=O)=O)CC2c1ccc(F)cc1` (stereo not drawn) [Example 155A, N2-(4-(4-chloro-1H-imidazol-1-yl)-3-methoxyphenyl)-N4-ethyl-8-(4-fluorophenyl)-6-(methylsulfonyl)-5,6,7,8-tetrahydropyrido[4,3-d]pyrimidine-2,4-diamine], the pIC50 was 8.00 to 8.82.

Take `CCN(C)c1nc(Nc2ccc(-n3cnc(Cl)c3)c(OC)c2)nc2c1COCC2c1ccc(F)cc1` (racemic) [Example 62, N2-(4-(4-chloro-1H-imidazol-1-yl)-3-methoxyphenyl)-N4-ethyl-8-(4-fluorophenyl)-N4-methyl-7,8-dihydro-5H-pyrano[4,3-d]pyrimidine-2,4-diamine]: the pIC50 was 7.00 to 8.00.

In the case of `CNc1nc(Nc2ccc(-n3cnc(C)n3)c(OC)c2)nc2c1CCC2c1ccc(F)cc1` (single isomer, unassigned) [Example 44A, 7-(4-fluorophenyl)-N2-(3-methoxy-4-(3-methyl-1H-1,2,4-triazol-1-yl)phenyl)-N4-methyl-6,7-dihydro-5H-cyclopenta[d]pyrimidine-2,4-diamine], the pIC50 was 8.00 to 8.82.

As for `CNc1nc(Nc2ccc(-n3cnc(C)n3)c(OC)c2)nc2c1CCC2c1ccc(C(F)(F)F)nc1` (stereo not drawn) [Example 276, N2-(3-methoxy-4-(3-methyl-1H-1,2,4-triazol-1-yl)phenyl)-N4-methyl-7-(6-(trifluoromethyl)pyridin-3-yl)-6,7-dihydro-5H-cyclopenta[d]pyrimidine-2,4-diamine], the pIC50 is 7.00 to 8.00.

Take `COc1cc(Nc2nc3c(c(N4CC(F)(F)C4)n2)CCC3c2ccc(OC(F)(F)F)cc2)ccc1-n1cnc(Cl)c1` (single isomer, unassigned) [Example 99A, N-(4-(4-chloro-1H-imidazol-1-yl)-3-methoxyphenyl)-4-(3,3-difluoroazetidin-1-yl)-7-(4-(trifluoromethoxy)phenyl)-6,7-dihydro-5H-cyclopenta[d]pyrimidin-2-amine]: the pIC50 is 7.00 to 8.00.

For `CNc1nc(Nc2ccc(-n3cnc(Cl)c3)c(OC)c2)nc2c1C=CCC2(O)c1ccccc1` (stereo not drawn) [Example 177, 2-(4-(4-chloro-1H-imidazol-1-yl)-3-methoxyphenylamino)-4-(methylamino)-8-phenyl-7,8-dihydroquinazolin-8-ol], the pIC50 is 7.00 to 8.00.

The same assay, now with this note: 19 h, H4 APP751 SWE clone 8.20 cells, 19 h incubation; read-out: Activity Rating (Aβ42 cellular IC50), numeric value.
Consider `CNc1nc(Nc2ccc(C#N)c(C#N)c2)nc2c1CCC2c1ccccc1` (stereo not drawn) [Example 237, 4-(4-(methylamino)-7-phenyl-6,7-dihydro-5H-cyclopenta[d]pyrimidin-2-ylamino)phthalonitrile], for which the pIC50 is 7.54.

Turning to `COc1cc(Nc2nc3c(c(N4CCCC4C)n2)CCC3c2ccc(F)cc2)ccc1-n1cnc(Cl)c1` (single isomer, unassigned) [Example 19B, N-(4-(4-chloro-1H-imidazol-1-yl)-3-methoxyphenyl)-7-(4-fluorophenyl)-4-(2-methylpyrrolidin-1-yl)-6,7-dihydro-5H-cyclopenta[d]pyrimidin-2-amine], the pIC50 was 7.23.

Consider `CNc1nc(Nc2ccc(Cl)c(OC)c2)nc2c1CCC2c1ccccc1` (stereo not drawn) [Example 220, N2-(4-chloro-3-methoxyphenyl)-N4-methyl-7-phenyl-6,7-dihydro-5H-cyclopenta[d]pyrimidine-2,4-diamine], for which the pIC50 was 6.26.

For `CCNc1nc(Nc2ccc(-n3cnc(C)n3)c(F)c2)nc2c1CN(S(C)(=O)=O)CC2c1ccc(F)cc1` (stereo not drawn) [Example 156A, N4-ethyl-N2-(3-fluoro-4-(3-methyl-1H-1,2,4-triazol-1-yl)pheny)-8-(4-fluorophenyl)-6-(methylsulfonyl)-5,6,7,8-tetrahydropyrido[4,3-d]pyrimidine-2,4-diamine], the pIC50 is 8.01.

Staying with this assay, now noted: H4 APP751 SWE clone 8.20 cells, 19 h incubation; class symbols; read-out: Activity Rating (Aβ42 cellular IC50).
With `CCNc1nc(Nc2ccc(-n3ncnc3C)c(F)c2)nc2c1COCC2c1ccc(F)c(F)c1` (stereo not drawn) [Example 116B, 8-(3,4-difluorophenyl)-N4-ethyl-N2-(3-fluoro-4-(5-methyl-1H-1,2,4-triazol-1-yl)phenyl)-7,8-dihydro-5H-pyrano[4,3-d]pyrimidine-2,4-diamine], the pIC50 was 6.00 to 7.00.

With `CNc1nc(Nc2ccc(-n3cnc(C)c3)c(OC)c2)nc2c1COCC2c1ccc(Cl)cc1` (single isomer, unassigned) [Example 70B, 8-(4-chlorophenyl)-N^2-(3-methoxy-4-(4-methyl-1H-imidazol-1-yl)phenyl)-N^4-methyl-7,8-dihydro-5H-pyrano[4,3-d]pyrimidine-2,4-diamine], the pIC50 was 7.00 to 8.00.

Consider `CNc1nc(Nc2ccc(-n3cnc(Cl)c3)c(OC)c2)nc2c1CCC2c1ccc(F)cc1F` (single isomer, unassigned) [Example 109B, N^2-(4-(4-Chloro-1H-imidazol-1-yl)-3-methoxyphenyl)-7-(2,4-difluorophenyl)-N^4-methyl-6,7-dihydro-5H-cyclopenta[d]pyrimidine-2,4-diamine], for which the pIC50 was 8.00 to 8.82.

Take `CCN(C)c1nc(Nc2ccc(-n3cnc(Cl)c3)c(OC)c2)nc2c1CCN(S(C)(=O)=O)C2c1ccc(F)cc1` (stereo not drawn) [Example 172A, N2-(4-(4-chloro-1H-imidazol-1-yl)-3-methoxyphenyl)-N4-ethyl-8-(4-fluorophenyl)-N4-methyl-7-(methylsulfonyl)-5,6,7,8-tetrahydropyrido[3,4-d]pyrimidine-2,4-diamine]: the pIC50 was 8.00 to 8.82.

With `COc1cc(Nc2nc(N[C@@H](C)C3CC3)c3c(n2)C(c2ccc(F)cc2)CC3)ccc1-n1cnc(Cl)c1` (single isomer, unassigned) [Example 50A], the pIC50 is 8.00 to 8.82.

Turning to `CCNc1nc(Nc2ccc(-n3cnc(Cl)c3)c(OC)c2)nc2c1COCC2c1ccc(C(F)(F)F)cc1` (stereo not drawn) [Example 118B, N2-(4-(4-chloro-1H-imidazol-1-yl)-3-methoxyphenyl)-N4-ethyl-8-(4-(trifluoromethyl)phenyl)-7,8-dihydro-5H-pyrano[4,3-d]pyrimidine-2,4-diamine], the pIC50 was 6.00 to 7.00.

As for `COc1cc(Nc2nc3c(c(N(C)C)n2)CCCC3c2ccc(F)cc2)ccc1-n1cnc(Cl)c1` (single isomer, unassigned) [Example 127A, N^2-(4-(4-chloro-1H-imidazol-1-yl)-3-methoxyphenyl)-8-(4-fluorophenyl)-N^4,N^4-dimethyl-5,6,7,8-tetrahydroquinazoline-2,4-diamine], the pIC50 is 8.00 to 8.82.

`CNc1nc(Nc2ccc(-n3cnc(C)c3)c(OC)c2)nc2c1COCC2c1ccc(Cl)cc1` (single isomer, unassigned) [Example 70A, 8-(4-chlorophenyl)-N^2-(3-methoxy-4-(4-methyl-1H-imidazol-1-yl)phenyl)-N^4-methyl-7,8-dihydro-5H-pyrano[4,3-d]pyrimidine-2,4-diamine]: the pIC50 is 8.00 to 8.82.

As to `CNc1nc(Nc2ccc(-n3ncnc3C)c(F)c2)nc2c1COC2c1ccc(F)cc1` (stereo not drawn) [Example 82B, N2-(3-fluoro-4-(5-methyl-1H-1,2,4-triazol-1-yl)phenyl)-7-(4-fluorophenyl)-N4-methyl-5,7-dihydrofuro[3,4-d]pyrimidine-2,4-diamine], the pIC50 was 7.00 to 8.00.

The pIC50 is the IC50 on a negative log10 scale, so that one unit is a factor of ten.
